Columns and labels:
[1] = molecular target: Serine/threonine-protein kinase PLK1 (Homo sapiens) (UniProt P53350); conditions: Compound concentration 1000.0 nM
[2] = molecular target: Wee1-like protein kinase (Homo sapiens) (UniProt P30291); conditions: Compound concentration 1000.0 nM
[3] = tested on: Tyrosine-protein kinase ABL1 (Homo sapiens), P00519 [Y253F]; conditions: Compound concentration 1000.0 nM
[4] = tested on: Receptor-type tyrosine-protein kinase FLT3 (Homo sapiens), P36888 [UNDEFINED MUTATION]; conditions: Compound concentration 1000.0 nM
[5] = molecular target: Mitogen-activated protein kinase 13 (Homo sapiens) (UniProt O15264); conditions: Compound concentration 1000.0 nM
[6] = molecular target: SRSF protein kinase 1 (Homo sapiens) (UniProt Q96SB4); conditions: Compound concentration 1000.0 nM
[7] = tested on: eIF-2-alpha kinase GCN2 (Homo sapiens), Q9P2K8 [S808G]; conditions: Compound concentration 1000.0 nM
[8] = molecular target: Mitogen-activated protein kinase 15 (Homo sapiens) (UniProt Q8TD08); conditions: Compound concentration 1000.0 nM
[9] = tested on: Proto-oncogene tyrosine-protein kinase receptor Ret (Homo sapiens), P07949 [M918T]; conditions: Compound concentration 1000.0 nM
[10] = molecular target: Cyclin-dependent kinase-like 2 (Homo sapiens) (UniProt Q92772); conditions: Compound concentration 1000.0 nM
[11] = molecular target: Interferon-induced, double-stranded RNA-activated protein kinase (Homo sapiens) (UniProt P19525); conditions: Compound concentration 1000.0 nM
[12] = molecular target: Serine/threonine-protein kinase Nek4 (Homo sapiens) (UniProt P51957); conditions: Compound concentration 1000.0 nM
[13] = molecular target: Tyrosine-protein kinase HCK (Homo sapiens) (UniProt P08631); conditions: Compound concentration 1000.0 nM
[14] = molecular target: Mitogen-activated protein kinase kinase kinase 20 (Homo sapiens) (UniProt Q9NYL2); conditions: Compound concentration 1000.0 nM
[15] = molecular target: Peripheral plasma membrane protein CASK (Homo sapiens) (UniProt O14936); conditions: Compound concentration 1000.0 nM
[16] = molecular target: Serine/threonine-protein kinase MRCK alpha (Homo sapiens) (UniProt Q5VT25); conditions: Compound concentration 1000.0 nM
[17] = molecular target: 5-hydroxytryptamine receptor 3A (Homo sapiens) (UniProt P46098); conditions: Compound concentration 10.0 uM
[18] = molecular target: Non-receptor tyrosine-protein kinase TYK2 (Homo sapiens) (UniProt P29597); conditions: Compound concentration 1000.0 nM
Non-receptor tyrosine-protein kinase TYK2 (Homo sapiens), sequence (P29597 whole entry): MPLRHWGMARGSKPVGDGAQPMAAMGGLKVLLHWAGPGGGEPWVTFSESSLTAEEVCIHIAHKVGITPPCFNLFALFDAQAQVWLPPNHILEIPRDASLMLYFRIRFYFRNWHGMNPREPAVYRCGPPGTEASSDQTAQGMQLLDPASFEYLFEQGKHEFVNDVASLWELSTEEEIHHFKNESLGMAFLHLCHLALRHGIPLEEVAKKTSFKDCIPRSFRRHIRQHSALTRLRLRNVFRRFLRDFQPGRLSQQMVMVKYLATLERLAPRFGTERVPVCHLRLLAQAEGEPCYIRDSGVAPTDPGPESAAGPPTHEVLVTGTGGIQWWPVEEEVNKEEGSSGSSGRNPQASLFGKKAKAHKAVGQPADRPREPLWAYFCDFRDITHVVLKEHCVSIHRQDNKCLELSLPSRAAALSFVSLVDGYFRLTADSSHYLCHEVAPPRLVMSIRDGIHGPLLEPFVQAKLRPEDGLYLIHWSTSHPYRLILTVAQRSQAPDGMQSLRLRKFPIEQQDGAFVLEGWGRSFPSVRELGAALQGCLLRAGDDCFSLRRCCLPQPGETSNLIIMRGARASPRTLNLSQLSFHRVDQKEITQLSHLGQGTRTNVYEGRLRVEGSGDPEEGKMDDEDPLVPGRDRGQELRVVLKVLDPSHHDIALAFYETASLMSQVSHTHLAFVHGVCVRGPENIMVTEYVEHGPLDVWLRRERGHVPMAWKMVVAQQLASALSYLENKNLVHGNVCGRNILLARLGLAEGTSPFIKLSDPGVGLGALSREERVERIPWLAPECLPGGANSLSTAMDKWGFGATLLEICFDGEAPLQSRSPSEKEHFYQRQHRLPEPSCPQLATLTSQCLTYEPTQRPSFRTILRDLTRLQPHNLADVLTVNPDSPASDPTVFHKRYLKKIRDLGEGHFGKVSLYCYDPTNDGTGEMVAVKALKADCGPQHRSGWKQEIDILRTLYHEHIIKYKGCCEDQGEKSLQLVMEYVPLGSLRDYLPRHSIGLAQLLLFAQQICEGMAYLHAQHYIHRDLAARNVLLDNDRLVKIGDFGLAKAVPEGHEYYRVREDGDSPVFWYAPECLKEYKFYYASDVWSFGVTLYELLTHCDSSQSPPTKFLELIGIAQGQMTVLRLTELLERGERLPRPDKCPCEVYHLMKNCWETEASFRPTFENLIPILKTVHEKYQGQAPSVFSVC

[19] = molecular target: Serine/threonine-protein kinase 32C (Homo sapiens) (UniProt Q86UX6); conditions: Compound concentration 1000.0 nM
[20] = tested on: Receptor-type tyrosine-protein kinase FLT3 (Homo sapiens), P36888 [N841I]; conditions: Compound concentration 1000.0 nM
[21] = molecular target: Muscarinic acetylcholine receptor M2 (Homo sapiens) (UniProt P08172); conditions: Compound concentration 10.0 uM
Muscarinic acetylcholine receptor M2 (Homo sapiens), sequence (P08172 whole entry): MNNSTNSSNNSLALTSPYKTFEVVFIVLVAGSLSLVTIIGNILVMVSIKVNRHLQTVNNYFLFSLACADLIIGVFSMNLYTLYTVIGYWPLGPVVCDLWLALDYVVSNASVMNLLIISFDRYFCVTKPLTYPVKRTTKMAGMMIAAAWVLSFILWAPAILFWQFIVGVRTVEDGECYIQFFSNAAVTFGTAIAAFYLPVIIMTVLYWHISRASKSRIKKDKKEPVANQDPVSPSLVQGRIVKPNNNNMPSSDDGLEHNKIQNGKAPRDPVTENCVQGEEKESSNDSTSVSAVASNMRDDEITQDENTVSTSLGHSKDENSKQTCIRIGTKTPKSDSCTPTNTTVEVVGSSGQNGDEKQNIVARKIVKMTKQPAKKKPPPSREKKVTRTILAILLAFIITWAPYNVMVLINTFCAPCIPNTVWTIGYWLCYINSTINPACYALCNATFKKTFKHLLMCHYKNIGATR

[22] = molecular target: Serine/threonine-protein kinase NIM1 (Homo sapiens) (UniProt Q8IY84); conditions: Compound concentration 1000.0 nM
[23] = molecular target: Serine/threonine-protein kinase RIO1 (Homo sapiens) (UniProt Q9BRS2); conditions: Compound concentration 1000.0 nM
[24] = molecular target: Activin receptor type-1-like (Homo sapiens) (UniProt P37023); conditions: Compound concentration 1000.0 nM
[25] = molecular target: Ribosomal protein S6 kinase alpha-1 (Homo sapiens) (UniProt Q15418); conditions: Compound concentration 1000.0 nM
[26] = molecular target: Phosphatidylinositol 4,5-bisphosphate 3-kinase catalytic subunit gamma isoform (Homo sapiens) (UniProt P48736); conditions: Compound concentration 1000.0 nM
[27] = tested on: Mast/stem cell growth factor receptor Kit (Homo sapiens), P10721 [D816H]; conditions: Compound concentration 1000.0 nM
Mast/stem cell growth factor receptor Kit (Homo sapiens), P10721 [D816H], sequence (P10721 whole entry D816H): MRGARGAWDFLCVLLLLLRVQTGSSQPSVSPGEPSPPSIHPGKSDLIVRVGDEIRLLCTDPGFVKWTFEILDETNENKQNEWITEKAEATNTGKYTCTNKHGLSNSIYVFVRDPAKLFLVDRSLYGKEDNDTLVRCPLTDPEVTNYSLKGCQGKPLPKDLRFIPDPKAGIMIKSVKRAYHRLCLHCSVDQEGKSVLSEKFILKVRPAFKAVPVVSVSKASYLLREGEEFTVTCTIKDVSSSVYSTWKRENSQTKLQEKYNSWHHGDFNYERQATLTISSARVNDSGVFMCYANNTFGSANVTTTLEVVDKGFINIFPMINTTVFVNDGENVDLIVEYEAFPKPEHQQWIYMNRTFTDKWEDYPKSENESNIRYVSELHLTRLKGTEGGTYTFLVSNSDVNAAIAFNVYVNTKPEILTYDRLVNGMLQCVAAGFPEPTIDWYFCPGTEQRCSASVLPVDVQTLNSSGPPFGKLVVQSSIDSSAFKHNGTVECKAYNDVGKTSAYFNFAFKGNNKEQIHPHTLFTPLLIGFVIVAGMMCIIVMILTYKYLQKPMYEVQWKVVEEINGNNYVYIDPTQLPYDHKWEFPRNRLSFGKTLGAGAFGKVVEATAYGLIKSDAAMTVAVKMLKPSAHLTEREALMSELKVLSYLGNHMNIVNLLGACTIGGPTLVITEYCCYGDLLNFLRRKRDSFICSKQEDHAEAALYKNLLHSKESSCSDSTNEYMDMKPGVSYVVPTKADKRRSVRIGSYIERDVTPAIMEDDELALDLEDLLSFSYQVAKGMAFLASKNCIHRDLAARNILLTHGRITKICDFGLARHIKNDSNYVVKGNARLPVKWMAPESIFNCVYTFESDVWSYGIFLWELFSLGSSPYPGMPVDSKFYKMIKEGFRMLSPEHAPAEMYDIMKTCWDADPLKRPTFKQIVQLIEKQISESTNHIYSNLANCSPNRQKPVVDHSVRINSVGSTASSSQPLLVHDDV

[28] = molecular target: Cyclin-dependent kinase 2 (Homo sapiens) (UniProt P24941); conditions: Compound concentration 1000.0 nM
[29] = tested on: Receptor-type tyrosine-protein kinase FLT3 (Homo sapiens), P36888 [D835H]; conditions: Compound concentration 1000.0 nM
[30] = molecular target: Serine/threonine-protein kinase 17A (Homo sapiens) (UniProt Q9UEE5); conditions: Compound concentration 1000.0 nM
[31] = molecular target: Beta-2 adrenergic receptor (Homo sapiens) (UniProt P07550); conditions: Compound concentration 10.0 uM
[32] = molecular target: Cyclin-dependent kinase 11A (Homo sapiens) (UniProt Q9UQ88); conditions: Compound concentration 1000.0 nM
[33] = tested on: Phosphatidylinositol 4,5-bisphosphate 3-kinase catalytic subunit alpha isoform (Homo sapiens), P42336 [H1047Y]; conditions: Compound concentration 1000.0 nM
[34] = molecular target: Epidermal growth factor receptor (Homo sapiens) (UniProt P00533); conditions: Compound concentration 1000.0 nM
[35] = molecular target: Serine/threonine-protein kinase ULK1 (Homo sapiens) (UniProt O75385); conditions: Compound concentration 1000.0 nM
[36] = tested on: Mast/stem cell growth factor receptor Kit (Homo sapiens), P10721 [V559D,T670I]; conditions: Compound concentration 1000.0 nM
Mast/stem cell growth factor receptor Kit (Homo sapiens), P10721 [V559D,T670I], sequence (P10721 whole entry V559D/T670I): as the sequence (P10721 whole entry D816H) above, with V559D, T670I, H816D counted along it

[37] = molecular target: Tyrosine-protein kinase JAK1 (Homo sapiens) (UniProt P23458); conditions: Compound concentration 1000.0 nM
[38] = molecular target: ALK tyrosine kinase receptor (Homo sapiens) (UniProt Q9UM73); conditions: Compound concentration 1000.0 nM
[39] = molecular target: SRSF protein kinase 3 (Homo sapiens) (UniProt Q9UPE1); conditions: Compound concentration 1000.0 nM
SRSF protein kinase 3 (Homo sapiens), sequence (Q9UPE1 whole entry): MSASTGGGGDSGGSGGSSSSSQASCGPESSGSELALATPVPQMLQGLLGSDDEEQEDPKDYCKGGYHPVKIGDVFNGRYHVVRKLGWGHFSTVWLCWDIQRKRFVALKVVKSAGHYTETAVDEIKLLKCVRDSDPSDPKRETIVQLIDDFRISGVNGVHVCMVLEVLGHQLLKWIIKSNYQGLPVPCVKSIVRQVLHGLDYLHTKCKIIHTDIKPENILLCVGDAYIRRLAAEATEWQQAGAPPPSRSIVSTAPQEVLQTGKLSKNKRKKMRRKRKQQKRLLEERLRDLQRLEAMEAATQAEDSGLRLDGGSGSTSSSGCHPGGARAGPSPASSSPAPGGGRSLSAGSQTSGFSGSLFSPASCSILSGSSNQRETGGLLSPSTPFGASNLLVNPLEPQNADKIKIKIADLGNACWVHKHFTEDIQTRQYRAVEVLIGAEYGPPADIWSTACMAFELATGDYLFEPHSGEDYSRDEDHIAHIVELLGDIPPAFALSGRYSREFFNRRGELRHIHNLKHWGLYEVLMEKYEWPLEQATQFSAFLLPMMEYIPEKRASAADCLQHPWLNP

[40] = molecular target: Activin receptor type-1B (Homo sapiens) (UniProt P36896); conditions: Compound concentration 1000.0 nM
[41] = molecular target: Serine/threonine-protein kinase WNK2 (Homo sapiens) (UniProt Q9Y3S1); conditions: Compound concentration 1000.0 nM
[42] = molecular target: Serine/threonine-protein kinase SIK2 (Homo sapiens) (UniProt Q9H0K1); conditions: Compound concentration 1000.0 nM
Serine/threonine-protein kinase SIK2 (Homo sapiens), sequence (Q9H0K1 whole entry, looked up): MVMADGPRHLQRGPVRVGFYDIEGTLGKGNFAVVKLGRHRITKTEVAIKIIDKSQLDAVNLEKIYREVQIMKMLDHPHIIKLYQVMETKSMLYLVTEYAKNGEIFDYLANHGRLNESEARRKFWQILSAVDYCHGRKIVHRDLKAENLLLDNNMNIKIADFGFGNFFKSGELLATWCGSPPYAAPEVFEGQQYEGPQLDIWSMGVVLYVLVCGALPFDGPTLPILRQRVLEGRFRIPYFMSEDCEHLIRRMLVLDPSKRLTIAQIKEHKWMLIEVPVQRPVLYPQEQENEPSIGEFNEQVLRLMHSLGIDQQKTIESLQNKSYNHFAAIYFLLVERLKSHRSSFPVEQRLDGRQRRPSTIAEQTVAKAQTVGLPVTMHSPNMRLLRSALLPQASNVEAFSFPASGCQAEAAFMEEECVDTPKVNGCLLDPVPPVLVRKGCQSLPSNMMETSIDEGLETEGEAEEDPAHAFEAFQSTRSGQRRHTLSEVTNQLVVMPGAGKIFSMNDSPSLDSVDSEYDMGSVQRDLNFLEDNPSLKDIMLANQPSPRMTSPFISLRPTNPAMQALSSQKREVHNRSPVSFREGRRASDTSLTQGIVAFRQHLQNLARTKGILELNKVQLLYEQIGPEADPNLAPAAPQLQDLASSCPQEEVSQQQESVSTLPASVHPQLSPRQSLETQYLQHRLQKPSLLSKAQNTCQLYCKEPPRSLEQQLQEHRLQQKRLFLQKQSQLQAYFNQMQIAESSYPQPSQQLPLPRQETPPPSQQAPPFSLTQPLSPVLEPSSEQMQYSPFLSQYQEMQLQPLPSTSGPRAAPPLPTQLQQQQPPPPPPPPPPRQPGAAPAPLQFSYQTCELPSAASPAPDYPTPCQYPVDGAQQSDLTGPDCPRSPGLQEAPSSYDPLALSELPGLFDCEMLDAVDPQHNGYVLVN

[43] = molecular target: Vascular endothelial growth factor receptor 3 (Homo sapiens) (UniProt P35916); conditions: Compound concentration 1000.0 nM
[44] = molecular target: Atypical kinase COQ8B, mitochondrial (Homo sapiens) (UniProt Q96D53); conditions: Compound concentration 1000.0 nM
[45] = molecular target: Dual specificity protein kinase CLK4 (Homo sapiens) (UniProt Q9HAZ1); conditions: Compound concentration 1000.0 nM

Wee1-like protein kinase (Homo sapiens), sequence (P30291 whole entry, looked up): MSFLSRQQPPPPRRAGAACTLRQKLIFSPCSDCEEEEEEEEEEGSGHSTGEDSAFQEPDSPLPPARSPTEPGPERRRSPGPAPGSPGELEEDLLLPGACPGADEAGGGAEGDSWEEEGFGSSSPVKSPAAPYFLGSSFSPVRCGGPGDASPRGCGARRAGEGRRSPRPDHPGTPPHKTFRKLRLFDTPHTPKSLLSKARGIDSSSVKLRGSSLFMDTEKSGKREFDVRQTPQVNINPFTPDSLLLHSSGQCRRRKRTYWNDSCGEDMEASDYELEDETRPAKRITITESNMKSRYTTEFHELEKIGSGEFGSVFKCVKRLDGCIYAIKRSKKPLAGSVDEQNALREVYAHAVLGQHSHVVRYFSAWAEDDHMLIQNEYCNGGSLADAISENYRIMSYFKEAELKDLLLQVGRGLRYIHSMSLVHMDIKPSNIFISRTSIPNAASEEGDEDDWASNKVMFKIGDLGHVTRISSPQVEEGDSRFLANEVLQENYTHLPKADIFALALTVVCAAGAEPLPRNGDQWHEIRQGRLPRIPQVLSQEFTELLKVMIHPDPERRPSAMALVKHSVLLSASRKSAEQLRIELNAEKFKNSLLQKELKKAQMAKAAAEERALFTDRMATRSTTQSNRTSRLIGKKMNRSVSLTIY

CN([C@@H]1CCc2c(CC(=O)O)c3ccccc3n2C1)S(=O)(=O)c1ccc(F)cc1 [MK-7246]
inactive: residual activity [1] 98% | residual activity [2] 100% | residual activity [3] 100% | residual activity [4] 100% | residual activity [5] 91% | residual activity [6] 100% | residual activity [7] 78% | residual activity [8] 100% | residual activity [9] 97% | residual activity [10] 100% | residual activity [11] 100% | residual activity [12] 100% | residual activity [13] 95% | residual activity [14] 99% | residual activity [15] 66% | residual activity [16] 100% | inhibition [17] -3.85% | residual activity [18] 100% | residual activity [19] 100% | residual activity [20] 100% | inhibition [21] -0.4% | residual activity [22] 100% | residual activity [23] 100% | residual activity [24] 88% | residual activity [25] 100% | residual activity [26] 100% | residual activity [27] 95% | residual activity [28] 100% | residual activity [29] 91% | residual activity [30] 100% | inhibition [31] -7.68% | residual activity [32] 100% | residual activity [33] 97% | residual activity [34] 95% | residual activity [35] 96% | residual activity [36] 100% | residual activity [37] 83% | residual activity [38] 78% | residual activity [39] 100% | residual activity [40] 96% | residual activity [41] 92% | residual activity [42] 99% | residual activity [43] 95% | residual activity [44] 100% | residual activity [45] 100%

CN([C@@H]1CCc2c(CC(=O)O)c3cc(S(C)(=O)=O)ccc3n2C1)S(=O)(=O)c1ccc(F)cc1
inactive: residual activity [1] 93% | residual activity [2] 100% | residual activity [3] 82% | residual activity [4] 82% | residual activity [5] 68% | residual activity [6] 100% | residual activity [7] 71% | residual activity [8] 100% | residual activity [9] 100% | residual activity [10] 100% | residual activity [11] 100% | residual activity [12] 91% | residual activity [13] 87% | residual activity [14] 80% | residual activity [15] 80% | residual activity [16] 100% | inhibition [17] -2.99% | residual activity [18] 83% | residual activity [19] 100% | residual activity [20] 100% | inhibition [21] -9.24% | residual activity [22] 100% | residual activity [23] 100% | residual activity [24] 100% | residual activity [25] 100% | residual activity [26] 100% | residual activity [27] 97% | residual activity [28] 100% | residual activity [29] 76% | residual activity [30] 100% | inhibition [31] 0.0525% | residual activity [32] 100% | residual activity [33] 90% | residual activity [34] 100% | residual activity [35] 92% | residual activity [36] 100% | residual activity [37] 94% | residual activity [38] 80% | residual activity [39] 100% | residual activity [40] 99% | residual activity [41] 80% | residual activity [42] 93% | residual activity [43] 100% | residual activity [44] 100% | residual activity [45] 100%

Reference: ChEMBL document CHEMBL4507290 (2021)
